The values below come from PubChem BioAssay (NCI).

SMILES strings stand for the structures. Several values for one entry are separate records, joined by “and”; a condition that tells them apart may be missing. Equal values may be shown once.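 Dose response: 5 concentrations. Exposure: 48 h. Format: 96-well plates. Endpoint: linear interpolation; highest concentration if not reached. GI50: concentration for 50% inhibition of growth. Definition used: TGI = concentration required for complete inhibition of growth.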 Where only a bound is given, the exact number is not on record here.

Test systems include BT-549 breast; CAKI-1 renal; CCRF-CEM leukemia; COLO 205 colon; HCC-2998 colon; HL-60(TB) leukemia; NCI-H460 lung; RXF 393 renal; SF-268 CNS; SF-539 CNS.
Common to all, as to assay: NCI-60 cell line screen, 48 h

On to `COc1cc2c(cc1OC)C(c1ccccc1CCCCl)=NCC2`, for which the TGI in the test on BT-549 breast, in the test with CAKI-1 renal, with CCRF-CEM leukemia, with COLO 205 colon, with HCC-2998 colon and in the test on HL-60(TB) leukemia was greater than 100000 nM throughout. In addition, the TGI with NCI-H460 lung, in the test with RXF 393 renal, in the test with SF-268 CNS and with SF-539 CNS was greater than 100000 nM throughout.
In the case of `CC(C)CC(=O)OC[n+]1ccc(-c2c(COC(=O)NC(C)C)c(COC(=O)NC(C)C)c3n2CCC3)cc1`, the TGI in the test with BT-549 breast, with CAKI-1 renal, in the test with CCRF-CEM leukemia, with COLO 205 colon, in the test with HCC-2998 colon and with HL-60(TB) leukemia was greater than 100000 nM throughout. For the same compound, the TGI in the test on NCI-H460 lung, in the test on RXF 393 renal, in the test with SF-268 CNS and in the test with SF-539 CNS was greater than 100000 nM throughout.
Take `O=C(NNC(=O)c1ccccc1SSc1ccccc1C(=O)NNC(=O)c1ccccc1S)c1ccccc1S`: the TGI with BT-549 breast is 74800 nM; in the test with CAKI-1 renal, greater than 100000 nM; in the test with CCRF-CEM leukemia, 24400 nM; in the test on COLO 205 colon it was greater than 100000 nM; in the test on HCC-2998 colon it was greater than 100000 nM; in the test with HL-60(TB) leukemia it was 9490 nM. The TGI with NCI-H460 lung was greater than 100000 nM; with RXF 393 renal, greater than 100000 nM; in the test with SF-268 CNS, greater than 52500 nM; in the test on SF-539 CNS, greater than 53900 nM.
On to `COc1ccc(C2c3cc4c(cc3OC(NNS(=O)(=O)c3ccc(C)cc3)C2C)OCO4)cc1` (stereo not drawn), for which the TGI is greater than 100000 nM with BT-549 breast; greater than 100000 nM with CAKI-1 renal; greater than 100000 nM in the test with CCRF-CEM leukemia; greater than 100000 nM in the test with COLO 205 colon; greater than 100000 nM in the test on HCC-2998 colon; 84700 nM with HL-60(TB) leukemia. The TGI in the test on NCI-H460 lung, in the test on RXF 393 renal, in the test on SF-268 CNS and in the test with SF-539 CNS was greater than 100000 nM throughout.
As to `Cc1c2cnccc2c(C)c2c1c1ccccc1n2CCCN`, the TGI was 2850 nM in the test with BT-549 breast; 1900 nM and 1410 nM with CAKI-1 renal; 750 nM and 215 nM in the test with CCRF-CEM leukemia; 986 nM and 629 nM with COLO 205 colon; 1830 nM and 432 nM in the test on HCC-2998 colon; 1520 nM and 1810 nM in the test with HL-60(TB) leukemia. Also, the TGI in the test on NCI-H460 lung was 335 nM and 220 nM; with RXF 393 renal, 799 nM and 888 nM; with SF-268 CNS, 879 nM and 583 nM; in the test on SF-539 CNS, 1350 nM. The GI50 is 779 nM and 295 nM in the test with CAKI-1 renal; 96.6 nM and 18.8 nM in the test with CCRF-CEM leukemia; 180 nM in the test on COLO 205 colon; 230 nM with HCC-2998 colon; 527 nM and 414 nM in the test with HL-60(TB) leukemia; 113 nM and 47.2 nM with NCI-H460 lung. The GI50 is 200 nM and 141 nM in the test on SF-268 CNS; 317 nM in the test on SF-539 CNS.
As for `Oc1cc2c3c(c1)c1cc4c(cc1c[n+]3CC2)OCO4`, the TGI in the test with BT-549 breast was 8100 nM; with CAKI-1 renal, greater than 50300 nM; with CCRF-CEM leukemia it was greater than 45800 nM; with COLO 205 colon it was greater than 40600 nM; in the test with HCC-2998 colon it was 25900 nM; in the test on HL-60(TB) leukemia it was greater than 27300 nM. The TGI in the test on NCI-H460 lung was greater than 23900 nM; with RXF 393 renal, greater than 68800 nM; in the test with SF-268 CNS, 8900 nM; in the test on SF-539 CNS, greater than 100000 nM.
